Reference: publication PMC10895676, “Antiviral Activity of Lipophilic Nucleoside Tetraphosphate Compounds” (Journal of Medicinal Chemistry, 2024)
“Also recorded” adds a separate entry of the source.

Tests used:
[1] = biological target: T1, human DNA polymerase β (Homo sapiens, UniProt P06746); test: Primer extension assay using human DNA polymerase β; assay type: biochemical; conditions: 60 min, 2 U, 37 °C
T1 construct: purchased Chimerx
Text: Encouraged by the previously obtained results that γ-phosphate-modified-d4TDPs 3, γ-monoalkylated d4TTP derivatives as well as d4TDP were accepted as substrates by HIV-RT,[49],[50],[55],[59]−[61] δ-dialkylated d4T tetraphosphate analogues 4,5, δ-monoalkylated d4T tetraphosphate analogues 20 and 24 and d4T4P were investigated in primer extension assays in the presence of HIV-RT or the three different human DNA polymerases α, β and γ. D4TTP (for the compounds 4–9) and the natural thymidine triphosphate (TTP) were used as reference compounds.
(§1) Figure 6 Primer extension assay using HIV-RT (A), human polymerases α (B), β (C), and γ (D). (Figure 6A). Primer extension assay using HIV-RT (30 min, 6U). Lane 1: (+) dATP, dCTP, dGTP, and TTP with HIV-RT. Lane 2: (−) dATP, dCTP, dGTP, and TTP without HIV-RT. Lane 3: TTP. […] Lane 5: δ-(C4; C18)-d4T4P 4d. […] Lane 7: δ-(C18)-d4T4P 20. Lane 8: δ-C-(C18)-d4T4P 24. Lane 9: d4T4P. Lane 10: d4TTP. Lane 11: d4TDP. HIV-RT assay reaction conditions: 50 mM Tris–HCl (pH 8.6), 10 mM MgCl2, 40 mM KCl, 250 μM dNTPs, HIV-RT (6 U), 0.20 μM DNA hybrid, primer-template-hybrid 0.32 mM in a reaction volume of 10 μL, incubated at 37 °C for 0.5 h, 80 °C for 7 min. Primer extension assays: 50 mA, 45 w for 4 h. (Figure 6B). For human DNA polymerase α assay (60 min, 2 U): Lane 1: (+) dATP, dCTP, dGTP, and TTP with human polymerase α. Lane 2: (−) dATP, dCTP, dGTP, and TTP without human polymerase α. Lane 3: TTP. […] Lane 5: δ-(C4; C18)-d4T4P 4d. […] Lane 7: δ-(C18)-d4T4P 20. Lane 8: δ-C-(C18)-d4T4P 24. Lane 9: d4T4P. Lane 10: d4TTP. Human DNA polymerase α assay conditions: 60 mM Tris–HCl (pH 8), 5 mM Mg(OAc)2, 100 mM KCl, 1.0 mM dithiothreitol, 0.1 mM spermine, 0.01% (w/v) bovine serum albumin, 250 μM dNTPs, 2 U human polymerase α, 0.20 μM DNA hybrid, and primer-template-hybrid 0.32 mM in a reaction volume of 10 μL, incubated at 37 °C for 1 h, 80 °C for 7 min. Primer extension assays: 50 mA, 45 w for 3 h. (Figure 6C). For human DNA polymerase β assay (60 min, 2 U): Lane 1: (+) dATP, dCTP, dGTP, and TTP with human polymerase β. Lane 2: (−) dATP, dCTP, dGTP, and TTP without human polymerase β. Lane 3: TTP. […] Lane 5: δ-(C4; C18)-d4T4P 4d. […] Lane 7: δ-(C18)-d4T4P 20. Lane 8: δ-C-(C18)-d4T4P 24. Lane 9: d4T4P. Lane 10: d4TTP. Human DNA polymerase β assay conditions: 50 mM Tris–HCl (pH 8.7), 10 mM Mg(OAc)2, 100 mM KCl, 1.0 mM dithiothreitol, 0.1 mM spermine, 0.01% (w/v) bovine serum albumin, 15% glycerol, 250 μM dNTPs, 2 U human DNA polymerase β, 0.20 μM DNA hybrid, and primer-template-hybrid 0.32 mM in a reaction volume of 10 μL, incubated at 37 °C for 1 h, 80 °C for 7 min. Primer extension assays: 50 mA, 45 w for 3 h. (Figure 6D), For the human DNA polymerase γ assay (120 min, 2 U): Lane 1: (+) dATP, dCTP, dGTP, and TTP with human polymerase γ. Lane 2: (−) dATP, dCTP, dGTP, and TTP without human polymerase γ. Lane 3: TTP. […] Lane 5: δ-(C4; C18)-d4T4P 4d. […] Lane 7: δ-(C18)-d4T4P 20. Lane 8: δ-C-(C18)-d4T4P 24. Lane 9: d4T4P. Lane 10: d4TTP. Human polymerase γ assay conditions: 60 mM Tris–HCl (pH 8), 5 mM Mg(OAc)2, 1.0 mM dithiothreitol, 0.1 mM spermine, 0.01% (w/v) bovine serum albumin, 250 μM dNTPs, 2 U human polymerase γ, 0.5 μM MnCl2, 0.20 μM DNA hybrid, primer-template-hybrid 0.32 mM in a reaction volume of 10 μL, incubated at 37 °C for 2 h, 80 °C for 7 min. Primer extension assays: 50 mA, 45 w for 3 h.
HIV-RT and human polymerases α, β, and γ were bought from Roboklon and Chimerx. The fluorescent-labeled primer and template were obtained from Metabion. […]

[2] = test system: HIV-1 (HE); test: Anti-HIV replication assay, HIV-1 (HE) in wild-type CEM/0 cells; assay type: cell-based; conditions: Human immunodeficiency virus 1, CCRF-CEM, read-out: HIV-1 (HE) EC50
Experimental: (§2) Inhibition of HIV-1(HE)- and HIV-2(ROD)-induced cytopathogenicity in wild-type CEM/0 CEM CD4^+ T-cells and thymidine kinase-deficient CEM/TK^– cell cultures was measured in microtiter 96-well plates containing ∼3 × 10^5 CEM cells/mL infected with 100 CCID50 of HIV per milliliter and containing appropriate dilutions of the test compounds. After 4–5 days of incubation at 37 °C in a CO2-controlled humidified atmosphere, virus-induced cellular effects and syncytia cell formation were examined microscopically. The EC50 (50% effective concentration) was defined as the compound concentration required to inhibit HIV-induced giant cell formation by 50%.

[3] = Chemical hydrolysis in aqueous buffers (PBS pH 7.3 / 8.0, citrate buffer pH 2.0), RP18-HPLC; assay type: physicochemical; conditions: phosphate buffered saline; 25 mM PBS, pH 7.3, 37 °C; read-out: PBS pH 7.3 t1/2 (converted)
Experimental: All metabolite mixtures were analyzed and quantified by means of analytical RP18-HPLC (UV detection).
The solution was incubated at 37 °C in a thermomixer. […] for each extraction and stored at −30 °C. When testing, samples were warmed up to room temperature, and 25 or 20 μL of the liquid was taken and injected into the analytical RP-18-HPLC instrument. Further aliquots were taken for monitoring the kinetic hydrolysis.
5.88 g of citric acid and 3.58 g of NaCl were dissolved in 82 mL of hydrochloric acid (0.1 mol/L). Then, sodium hydroxide was added to adjust the pH to 2.0.

[4] = Cytotoxicity, inhibition of CEM cell proliferation; assay type: cell-based; conditions: human, CEM cells (CD4+ T-cells), read-out: toxicity CC50
[5] = test system: HIV-2 (ROD); test: Anti-HIV replication assay, HIV-2 (ROD) in wild-type CEM/0 cells; assay type: cell-based; conditions: Human immunodeficiency virus 2, CCRF-CEM, read-out: HIV-2 (ROD) EC50
Experimental: as §2, with “microscopically.” for “microscopically. The EC50 (50% effective concentration) was defined as the compound concentration required to inhibit HIV-induced giant cell formation by 50%.”

[6] = Cytotoxicity, inhibition of CEM/TK– cell proliferation; assay type: cell-based; conditions: human, CEM/TK– cells (CD4+ T-cells), read-out: toxicity CC50
[7] = test system: HIV-2 (ROD); test: Anti-HIV replication assay, HIV-2 (ROD) in thymidine kinase-deficient CEM/TK– cells; assay type: cell-based; conditions: Human immunodeficiency virus 2, CEM-TK(-), read-out: CEM/TK– HIV-2 (ROD) EC50
Experimental: as §2, with “microscopically.” for “microscopically. The EC50 (50% effective concentration) was defined as the compound concentration required to inhibit HIV-induced giant cell formation by 50%.”

[8] = biological target: T2, HIV-RT (Human immunodeficiency virus type 1 group M subtype B, UniProt P03366); test: Primer extension assay using HIV-RT; assay type: biochemical; conditions: 30 min, 6 U HIV-RT, 37 °C
T2 construct: HIV-RT HIV reverse transcriptase; purchased Roboklon
Experimental: as §1
HIV-RT and human polymerases α, β, and γ were bought from Roboklon and Chimerx. The fluorescent-labeled primer and template were obtained from Metabion.
For the annealing of the primer/template mixture, 40 μL of the 10 μM primer and 60 μL of the 10 μM template were incubated for 5 min at 95 °C. Then, for optimal annealing, the temperature was reduced over a period of 2 h to 20 °C and incubated again for 20 min at 20 °C.
For the primer extension, the reaction mixture was incubated for 30 min for the HIV-RT, 60 min for the human DNA polymerase α, and 120 min for the human DNA polymerases β and γ at 37 °C, followed by 7 min at 80 °C.

| Structure (SMILES) | substrate for human DNA polymerase β (primer extension) [1] | EC50 [2] [µM] | half-life at 1.9 mM [3] [h] | CC50 [4] [µM] | EC50 [5] [µM] | CC50 [6] [µM] | EC50 [7] [µM] | substrate for HIV-RT (primer extension) [8] |
| --- | --- | --- | --- | --- | --- | --- | --- | --- |
| CCCCOP(=O)(OCCCC)OP(=O)(O)OP(=O)(O)OP(=O)(O)OC[C@@H]1C=C[C@H](n2cc(C)c(=O)[nH]c2=O)O1 [4a, δ-(Alkyl-C4; alkyl-C4)-d4T4P] | substrate | 0.22 ± 0.13 | 167 | > 100 | 0.16 ± 0.04 | > 100 | 14.8 ± 2.8 |  |
| Cc1cn(C2C=CC(COP(=O)(O)OP(=O)(O)O)O2)c(=O)[nH]c1=O (stereo not shown) [d4TDP, reference compound] |  |  |  |  |  |  |  | good substrates |
| Cc1cn([C@H]2C=C[C@@H](COP(=O)(O)OP(=O)(O)OP(=O)(O)O)O2)c(=O)[nH]c1=O [d4TTP, d4T triphosphate, reference compound] | substrate |  |  |  |  |  |  | incorporation of d4TMP was detected; also recorded: good substrates |
